Test results taken from patent US7358276B2, “2-Oxo-1-pyrrolidine derivatives, processes for preparing them and their uses” (UCB, S.A., priority 2000, dated 2008).

Each compound was assayed on audiogenic seizures in sound-susceptible mice (assay: Animal model of sound-susceptible mice (audiogenic seizures)). Conditions: intraperitoneally 60 minutes before induction of audiogenic seizures; doses given in mol/kg.
Format: in vivo
Source text: The activity of the compounds of formula I, or their pharmaceutically acceptable salts, as anticonvulsants can be determined in the audiogenic seizures model. The objective of this test is to evaluate the anticonvulsant potential of a compound by means of audiogenic seizures induced in sound-susceptible mice, a genetic animal model with reflex seizures. In this model of primary generalised epilepsy, seizures are evoked without electrical or chemical stimulation and the seizure types are, at least in part, similar in their clinical phenomenology to seizures occurring in man (Löscher W. & Schmidt D., Epilepsy Res. (1998), 2, p. 145-181; Buchhalter J. R., Epilepsia (1993), 34, S31-S41). Results obtained with compounds of formula I are indicative of a strong pharmacological effect.
The objective of this test is to evaluate the anticonvulsant potency of a compound in sound-susceptible mice, a genetic animal model with reflex seizures. In this model of primary generalised epilepsy, seizures are evoked without electrical or chemical stimulation and the seizure types are, at least in part, similar in their clinical phenomenology to seizures occuring in man (Löscher W. & Schmidt D., Epilepsy Res. (1998), 2, 145-181; Buchhalter J. R., Epilepsia (1993), 34, S31-S41).
Male or female genetically sound-sensitive mice (14-28 g; N=10), derived from a DBA strain originally selected by Dr. Lehmann of the Laboratory of Acoustic Physiology (Paris) and bred in the UCB Pharma Sector husbandry unit since 1978, are used. The experimental design consisted of several groups, one group receiving the vehicle control and the other groups different doses of the test-compound. The compounds are administered intraperitoneally 60 minutes before the induction of audiogenic seizures.
For testing, the animals are placed in small cages, one mouse per cage, in a sound-attenuated chamber. After a period of orientation of 30 seconds, the acoustic stimulus (90 dB, 10-20 kHz) is delivered for 30 seconds via loudspeakers positioned above each cage. During this interval, the mice are observed and the presence of the 3 phases of the seizure activity namely wild running, clonic and tonic convulsions, is recorded. The proportion of mice protected against wild running, clonic and tonic convulsions, respectively, is calculated.
For active compounds, an ED50 value, i.e. the dose producing 50% protection relative to the control group, together with 95% confidence limits, was calculated using a Probit Analysis (SAS/STAT® Software, version 6.09, PROBIT procedure) of the proportions of protected mice for each of the 3 phases of the seizure activity.

| Compound | ED50 (dose producing 50% protection against audiogenic seizures) |
| --- | --- |
| 2-[4-(2,2-dibromovinyl)-2-oxo-1-pyrrolidinyl]butanamide [Compound 47] | Particularly promising activity |
| CCCCOC(=O)CC(CCC)CN[C@@H](CC)C(N)=O.Cl (mixture of isomers) [AA 4, butyl 3-({[(1S)-1-(aminocarbonyl)propyl]amino}methyl)hexanoate hydrochloride] | Particularly promising activity |
| CC[C@@H](C(N)=O)N1CC(n2cccc2)CC1=O (single isomer, unassigned) [Compound 223, 4-pyrol-pyrrolidin-2-one] | Particularly promising activity |
| CC[C@@H](C(N)=O)N1CC(CBr)CC1=O (some centres unmarked) [Compound 9] | Particularly promising activity |
| CC[C@@H](C(N)=O)N1CC(c2ccsc2)CC1=O (some centres unmarked) [Compound 88] | Particularly promising activity |
| CCCC(CN[C@@H](CC)C(N)=O)CC(=O)OCC.Cl (stereo partly drawn) [AA 2, ethyl 3-({[(1S)-1-(aminocarbonyl)propyl]amino}methyl)hexanoate hydrochloride] | Particularly promising activity |
| CCCC(CN[C@@H](CC)C(N)=O)CC(=O)OCC.Cl (stereo partly drawn) [AA 1, ethyl 3-({[(1S)-1-(aminocarbonyl)propyl]amino}methyl)hexanoate hydrochloride] | Particularly promising activity |
| CCCC(CN[C@@H](CC)C(N)=O)CC(=O)OC(C)C.Cl (mixture of isomers) [AA 5, isopropyl 3-({[(1S)-1-(aminocarbonyl)propyl]amino}methyl)hexanoate hydrochloride] | Particularly promising activity |
| CCCC(CN[C@@H](CC)C(N)=O)CC(=O)OCCC12CC3CC(CC(C3)C1)C2.Cl (mixture of isomers) [AA 3, 2-(1-adamantyl)ethyl 3-({[(1S)-1-(aminocarbonyl)propyl]amino}methyl)hexanoate hydrochloride] | Particularly promising activity |

These compounds were tested against T1, Levetiracetam Binding Site (LBS), rat cerebral cortex membranes (Rattus norvegicus, UniProt Q02563) (assay: LBS binding assay (competitive binding, [3H]-2-[4-(3-azidophenyl)-2-oxo-1-pyrrolidinyl]butanamide)). Conditions: 4° C., 120 min.
T1 construct: The crude membrane pellet obtained is resuspended in 50 mmol/l Tris-HCl (pH 7.4); from tissue; host or cells: rat cerebral cortex crude membranes (male Sprague-Dawley)
T1 sequence (Q02563 whole entry): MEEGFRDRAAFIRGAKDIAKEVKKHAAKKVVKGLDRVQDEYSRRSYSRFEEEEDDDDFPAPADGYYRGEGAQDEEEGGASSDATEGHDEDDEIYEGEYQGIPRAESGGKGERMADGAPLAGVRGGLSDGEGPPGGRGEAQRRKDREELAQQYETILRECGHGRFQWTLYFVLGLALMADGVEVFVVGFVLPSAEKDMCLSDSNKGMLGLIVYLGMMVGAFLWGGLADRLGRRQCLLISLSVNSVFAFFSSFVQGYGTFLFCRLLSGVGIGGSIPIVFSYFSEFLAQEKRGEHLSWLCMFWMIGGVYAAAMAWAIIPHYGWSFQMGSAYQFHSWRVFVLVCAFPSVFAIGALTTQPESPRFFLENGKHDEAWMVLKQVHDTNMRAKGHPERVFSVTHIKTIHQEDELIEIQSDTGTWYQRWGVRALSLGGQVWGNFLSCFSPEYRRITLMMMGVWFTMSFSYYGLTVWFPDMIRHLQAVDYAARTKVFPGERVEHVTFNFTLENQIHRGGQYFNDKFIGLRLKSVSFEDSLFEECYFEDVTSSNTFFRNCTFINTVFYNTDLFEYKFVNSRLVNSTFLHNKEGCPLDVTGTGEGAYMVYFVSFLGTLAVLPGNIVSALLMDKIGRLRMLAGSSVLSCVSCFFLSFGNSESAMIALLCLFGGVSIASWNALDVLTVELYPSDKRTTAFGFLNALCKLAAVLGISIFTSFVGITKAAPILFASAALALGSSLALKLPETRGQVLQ

| Compound | pKi (affinity for the levetiracetam binding site) |
| --- | --- |
| 2-[4-(2,2-dibromovinyl)-2-oxo-1-pyrrolidinyl]butanamide [Compound 47] | Particular affinity |
| CC[C@@H](C(N)=O)N1CC(n2cccc2)CC1=O (single isomer, unassigned) [Compound 223, 4-pyrol-pyrrolidin-2-one] | Particular affinity |
| CC[C@@H](C(N)=O)N1CC(CBr)CC1=O (some centres unmarked) [Compound 9] | Particular affinity |
| CC[C@@H](C(N)=O)N1CC(CC(C)I)CC1=O (stereo partly drawn) [Compound 226, (2S)-2-[4-(2-iodopropyl)-2-oxo-1-pyrrolidinyl]butanamide] | Particular affinity |
| CCCCCC1CC(=O)N(C(CC)C(N)=O)C1 (centres unmarked) [Compound 142] | Particular affinity |
| CCCC1CC(=O)N(C(CC)C(N)=O)C1 (centres unmarked) [Compound 127, 2-(2-oxo-4-propyl-1-pyrrolidinyl)butanamide] | Particular affinity |
| CC[C@@H](C(N)=O)N1CC(CC(C)(C)C)CC1=O (stereo partly drawn) [Compound 149, (2S)-2-(4-neopentyl-2-oxo-1-pyrrolidinyl)butanamide] | Particular affinity |
| CC[C@@H](C(N)=O)N1CC(c2ccsc2)CC1=O (some centres unmarked) [Compound 88] | Particular affinity |
| CCCC1CC(=O)N(C(C)C(N)=O)C1 (centres unmarked) [Compound 119] | Particular affinity |
| CC[C@@H](C(N)=O)N1CC(CN=C=S)CC1=O (stereo partly drawn) [Compound 49, (2S)-2-[4-(isothiocyanatomethyl)-2-oxo-1-pyrrolidinyl]butanamide] | Particular affinity |
| CC[C@@H](C(N)=O)N1CC(COS(=O)(=O)c2ccc(C)cc2)CC1=O (stereo partly drawn) [Compound 31, {1-[(1S)-1-(aminocarbonyl)propyl]-5-oxo-3-pyrrolidinyl}methyl 4-methylbenzenesulfonate] | Particular affinity |
| CCCC1CC(=O)N(C(CCC)C(N)=O)C1 (centres unmarked) [Compound 304] | Particular affinity |
| CCC(C(N)=O)N1CC(c2cccc(Cl)c2)CC1=O (centres unmarked) [Compound 204, 2-[4-(3-chlorophenyl)-2-oxo-1-pyrrolidinyl]butanamide] | Particular affinity |
| CCCC1CC(=O)N(C(CC2CC2)C(N)=O)C1 (centres unmarked) [Compound 306] | Particular affinity |
| CCC(C(N)=O)N1CC(c2ccc(Cl)cc2)CC1=O (centres unmarked) [Compound 169] | Particular affinity |
| CCC(C(N)=O)N1CC(c2cccc(Cl)c2)CC1=O (centres unmarked) [Compound 205, 2-[4-(3-chlorophenyl)-2-oxo-1-pyrrolidinyl]butanamide] | Particular affinity |

| Compound | pKi (affinity for the levetiracetam binding site) |
| --- | --- |
| CC[C@@H](C(N)=O)N1CC(CC(C)I)CC1=O (stereo partly drawn) [Compound 225, (2S)-2-[4-(2-iodopropyl)-2-oxo-1-pyrrolidinyl]butanamide] | Particular affinity |
| CC[C@@H](C(N)=O)N1CC(c2cccs2)CC1=O (stereo partly drawn) [Compound 72, (2S)-2-[2-oxo-4-(2-thienyl)-1-pyrrolidinyl]butanamide] | Particular affinity |
| CCC(C(N)=O)N1CC(CC(F)F)CC1=O (centres unmarked) [Compound 157, 2-[4-(2,2-difluoroethyl)-2-oxo-1-pyrrolidinyl]butanamide] | Particular affinity |
| CCC(C(N)=O)N1CC(CS(=O)(=O)c2ccccc2)CC1=O (centres unmarked) [Compound 43] | Particular affinity |
| CCC(C(N)=O)N1CC(c2cccc(Cl)c2)CC1=O (centres unmarked) [Compound 170] | Particular affinity |
| CCC(C(N)=O)N1CC(c2ccccc2F)CC1=O (centres unmarked) [Compound 173] | Particular affinity |
| CC[C@@H](C(N)=O)N1CC(c2ccc(-c3ccccc3)cc2)CC1=O (some centres unmarked) [Compound 98] | Particular affinity |
| CC[C@@H](C(N)=O)N1CC(CBr)CC1=O (stereo partly drawn) [Compound 8, (2S)-2-[4-(bromomethyl)-2-oxo-1-pyrrolidinyl]butanamide] | Particular affinity |
| CCCC1CC(=O)N(C(Cc2cscn2)C(N)=O)C1 (centres unmarked) [Compound 350] | Particular affinity |
| CC[C@@H](C(N)=O)N1CC(CO[N+](=O)[O-])CC1=O (stereo partly drawn) [Compound 38, {1-[(1S)-1-(aminocarbonyl)propyl]-5-oxo-3-pyrrolidinyl}methyl Nitrate] | Particular affinity |
| CCC(C(N)=O)N1CC(C=C(C)C)CC1=O (centres unmarked) [Compound 163, 2-(2-oxo-4-(2,2-dimethylvinyl)-1-pyrrolidinyl)butanamide] | Particular affinity |
| CCC(C(N)=O)N1CC(c2cccc(C)c2)CC1=O (centres unmarked) [Compound 174] | Particular affinity |
| CCC(C(N)=O)N1CC(c2ccccc2C(F)(F)F)CC1=O (centres unmarked) [Compound 171] | Particular affinity |
| C=CCC(C(N)=O)N1CC(CCC)CC1=O (centres unmarked) [Compound 351] | Particular affinity |
| CC[C@@H](C(N)=O)N1CC(CCl)CC1=O (stereo partly drawn) [Compound 30, (2S)-2-[4-(chloromethyl)-2-oxo-1-pyrrolidinyl]butanamide] | Particular affinity |
| C#CC1CC(=O)N(C(CC)C(N)=O)C1 (centres unmarked) [Compound 207, 2-(4-ethynyl-2-oxo-1-pyrrolidinyl)butanamide] | Particular affinity |
